{"source": "patent US6465428B1", "about": "“Pharmaceutical combinations based on dalfopristine and quinupristine, and on cefepime” (Aventis Pharma S.A., priority 1999, dated 2002)", "key": {"[1]": {"system": "MRSA clinical isolates (Staphylococcus aureus resistant to methicillin)", "assay": "MIC by broth macrodilution", "format": "cell-based", "conditions": "for Range of MICs: 5 clinical isolates, 24 h at 35° C.", "procedure": "A panel of 10 clinical isolates of MRSA (5 MLSB-susceptible (susceptible to Macrolide-Lincosamide-Streptogramin B) and 5 C-MLSB-resistant (Constitutively Resistant to Macrolide-Lincosamide-Streptogramin B)) originating from various geographical areas were tested for their susceptibilities to quinupristin/dalfopristin and to cefepime. Two of these isolates, namely AW7 and P8, were further used for animal experiments. These both were C-MLSB-resistant.\nBacteria were grown at 35° C., either in liquid cultures in tryptic soy broth (TSB; Difco Laboratories, Detroit, Mich.) or cation supplemented Mueller Hinton Broth (MHB; Difco), or on tryptic soy agar (TSA; Difco). All growth media were supplemented with 2% of sodium chloride to increase the expression of β-lactam resistance by MRSA. Bacterial stocks were kept at −70° C. in TSB, supplemented with 10% (vol/vol) glycerol.\nThe MIC (minimum inhibitory concentration) of the tested antibiotics was determined by a known broth macrodilution method (D. Amsterdam, Susceptibility testing of antimicrobials in liquid media, p.52-111, In V. Lorian ed., Antibiotics in Laboratory Medicine, Williams and Wilkins, Baltimore (1996)) with final inoculum of 10^5 to 10^6 CFU/ml. The MIC was defined as the lowest antibiotic concentration that inhibited visible bacterial growth after 24 hours of incubation at 35° C."}, "[2]": {"system": "C-MLSB resistant MRSA AW7 and P8", "assay": "Experimental endocarditis in rats", "format": "in vivo, rat", "conditions": "i.v. pump simulating human kinetics, every 12 hours", "text": "Sterile aortic vegetations were produced in female Wistar rats (weight 180 to 200 g) by the method of Heraiefet al., Infect Immunol., 37, 127-31 (1982), the disclosure of which is incorporated herein by reference in its entirety. Close by, an intravenous line containing a Silastic catheter was inserted into the jugular vein of a rat. The distal portion of the catheter was connected to a programmable pump device through a swivel, thus allowing the animals to move around their cage. The pump was set to deliver a volume of 0.2 ml of saline per hour to keep the line open until the onset of the therapy. In some experiments, quinupristine/dalfopristine was injected in combination with cefepime to the animals, with 2 infusion pumps, one to simulate human kinetics of quinupristine/dalfopristine and one to simulate human kinetics of cefepime. The 2 pumps were connected to a 2 way swivel and the drugs were infused into the animals via 2 independent jugular lines. No i.v. lines were placed in the control animals. Bacterial endocarditis was induced 24 hours after catheterization of the animals with 0.5 ml of saline containing 10^5 CFU of either of the test organisms. This inoculum was 10 times larger than the minimum inoculum producing endocarditis in 90% of the untreated rats.\nTreatment was started 12 hours after bacterial challenge and lasted 3 or 5 days. The distribution of the antibiotics simulated the drug kinetics in the serum of humans. Quinupristine/dalfopristine was given to simulate treatment in humans with 7 mg/kg of the drug administered i.v. every 12 hours. Cefepime was given to simulate treatment in humans with 2 g of the drug given i.v. every 12 hours. This required, for the experiment, a total amount (mg/kg of body weight) per 12 hours of 38 mg/kg of quinupristine/dalfopristine and 142 mg/kg of cefepime.\nThe control rats were sacrificed at the onset of the treatment (i.e., 12 hours after inoculation) in order to measure both the frequency and the severity of valvular infection at the start of the therapy. Treated rats were sacrificed 12 hours after the low level of the last antibiotic dose of either test drug. At that time, no residual antibiotic could be detected in the blood. The valvular vegetation were dissected under sterile conditions, weighed, homogenized in 1 ml of saline, and serially diluted before being plated for colony counts. The number of colonies growing on the plates was determined after 48 hours of incubation at 35° C. Bacterial densities in the vegetations were expressed as log10 CFU/g of tissue. The minimum detection level was ≧2 log10 CFU/g of vegetation. For statistical comparisons of differences between the vegetation bacterial densities of various treatment groups, culture-negative vegetations were considered to contain 2 log10 CFU/g. […]"}}, "data": [{"smiles": "CO/N=C(\\C(=O)N[C@@H]1C(=O)N2C(C(=O)[O-])=C(C[N+]3(C)CCCC3)CS[C@H]12)c1csc(N)n1", "note": "[cefepime, (6R,7R)-7-(2-(2-aminothiazol-4-yl)-2(Z)-(methoxyimino)acetamido)-3-(1-methyl-pyrrolidiniomethyl)-3-cephem-4-carboxylate]", "values": [{"measurement": "Range of MICs", "setting": "[1]; MRSA C-MLSB-R", "result": ">64", "unit": "mg/L"}, {"measurement": "Range of MICs", "setting": "[1]; MRSA MLSB-S", "result": ">64", "unit": "mg/L"}, {"measurement": "MIC", "setting": "[1]; Staphylococcus aureus, C-MLSB resistant MRSA AW7 and P8", "result": 64, "unit": "µg/mL"}, {"measurement": "infected rats/total rats", "setting": "[2]; Strain AW-7", "result": "6/6"}, {"measurement": "median log10 CFU/g of vegetation", "setting": "[2]; Strain AW-7", "result": "(8.6) log10 CFU/g"}, {"measurement": "infected rats/total rats", "setting": "[2]; Strain P8", "result": "8/8"}, {"measurement": "median log10 CFU/g of vegetation", "setting": "[2]; Strain P8", "result": "(9.0) log10 CFU/g"}]}]}
